{
  "source": "paper PMC12363935",
  "about": "“Unc-51 Like Kinase 3 (ULK3) is essential for autophagy and cell survival in multiple myeloma” (Research Square, 2025)",
  "key": {"primary CD138+ MM cells": {"test_system": "primary CD138+ MM cells", "assay": "EMMA ex vivo platform, live cell imaging, 96 hours, collagen matrix with bone marrow stroma and patient plasma", "format": "cell-based", "design": "scale not given here", "source_text": "For clinical robustness, we tested the activity of MA9 in MM patient samples using our ex vivo mathematical myeloma advisor (EMMA) platform (Supplementary Table 1). […]\nFor these assays, we used a novel EMMA platform developed at Moffitt. Further details are included in the supplemental Materials. […]\n400 Ex vivo drug sensitivity characterization\n401 An ex vivo assay was used to quantify the chemosensitivity of primary MM cells. Fresh BM\n402 aspirate cells were enriched for CD138+ expression using Miltenyi (Bergisch Gladbach, Germany)\nMM cells (CD138+) were seeded in Corning\n404 Cell BIND 384 well plates (Corning, NY) with collagen I and previously established human-\n407 inactivated), penicillin/streptomycin, and patient-derived plasma (10%, freshly obtained from\n409 added using a robotic plate handler so that every drug/combination was tested at 5 (fixed\n410 concentration ratio, for combinations) concentrations (1:3 serial dilution) in two replicates.\n411 Negative controls (supplemented growth media with and without the vehicle control dimethyl\n412 sulfoxide [DMSO]) were included, as well as positive controls for each drug (cell line MM1.S at\n413 highest drug concentration). Plates were placed in a motorized stage microscope (EVOS Auto FL,\n414 Life Technologies, Carlsbad, CA) equipped with an incubator and maintained at 5% CO2 and 37\n415 °C. […]\nDigital image analysis computes the percent\n418 viability of MM cells for each time point and experimental condition (drug and concentration)"}, "U266-Luc MM cells": {"test_system": "U266-Luc MM cells", "assay": "U266-Luc in vivo model, tail vein injection", "conditions": "10 mg/kg/day subcutaneously, M-F", "experimental": "For the U266-Luc model, 1 × 10^6 cells (100 μl/PBS) were tail vein injected into 4- to 6-week-old female and male NSG mice. […] Endpoint was represented by hind limb paralysis or >20% weight loss. When sacrificed, tumors tibiae were harvested and fixed in 10% neutral buffered formalin for 24 hours. Bioluminescent signal is reported as the average of the sum of dorsal and ventral signal of the mice/group/timepoint. […]\n28 Animal Experimentation: All animal experiments were performed with approval from the\n29 Moffitt/University of South Florida Institutional Animal Care and Use Committee (Protocol\n31 validation of MA9 efficacy (Figure 4), we initially included n = 10 mice per treatment group:\nRandomization based on sex, weight,\n33 and initial tumor burden was conducted, followed by treatment with either vehicle control (n = 6),\n35 Tumor progression was tracked via bioluminescence: endpoint was paralysis or >20% weight loss.\n36 Experiments were blinded. […]\n38 For MA9 therapy efficacy, mice were treated with vehicle (n=10) or MA9 (10 mg/kg/day,\n39 subcutaneously, M-F from day 20; n=10) (Supplementary Fig. 7E, F). Survival and toxicity\n40 (weight, clinical signs) was monitored.\n43 Luciferase-labeled MM cells 5TGM1-Luc (RRID: CVCL_VI66) and U266-Luc (RRID: […]\n51 cells (all from the ATCC, USA) were routinely cultured at 37 °C in Roswell Park Memorial\n53 FBS1) and penicillin/streptomycin (hereafter, complete medium).\n54 Cells were not used for five days following PI-treatment. All myeloma cell lines were […]"}, "[1]": {"test_system": "human mesenchymal stem cells (hMSCs)", "assay": "MTS assay on hMSCs", "format": "cell-based", "conditions": "nM concentration", "experimental": "complex. Supplementary Figure 5. […]\nhere as reference for BRD4 inhibitory activity. […] NA=\n1 hour incubation with liver microsomes. C.\nULK3 rendered in Pymol (Schrodinger Inc.) at a 2.8 Å resolution. D. Table summarizing hULK3-MA9060 crystallographic data collection and refinement statistics. E. MA9060 is a dual inhibitor, able to decrease both ULK3 and MYC protein levels in MYC-dependent MM1.S MM cells. JQ1 is here included as the control for […]\nmesenchymal stem cells (hMSCs) at 24 (G) and 48 (H) hours."}, "BRD4-1": {"target": "T1, BRD4-1 (Homo sapiens, UniProt O60885)", "T1 construct": "evaluated against Bromodomain 1 by Reaction Biology Corporation; purchased Reaction Biology Corporation", "assay": "Bromodomain profiling assay, AlphaScreen binding, H4/4Ac ligand", "conditions": "NA = no activity", "quoted_text": "331 Bromodomain profiling assay\n333 evaluated against Bromodomain 1 by Reaction Biology Corporation.\n334 The compounds were subjected to testing using a 10-dose IC50 singlet approach, involving a 3-\n335 fold serial dilution starting at 10 μM, specifically against BRD4-1. Additionally, as a benchmark,\n340 Detection was carried out through the AlphaScreen Binding assay with excitation/emission\n341 wavelengths set at 680/520-620 nm, respectively, using the Enspire platform.\n342 The data acquisition included raw data, represented as signal-background*, % Binding (relative to\n343 DMSO controls), and curve fits."}},
  "note": "“And” between values parts separate entries of the source, which are not always exact repeats. Equal values may be shown once.",
  "data": [
    {"smiles": "Cc1cnc(Nc2ccc(C3CCN(C)CC3)c(F)c2)nc1Nc1ccc(Cl)c(NS(=O)(=O)C(C)(C)C)c1", "note": "[MA9060]", "values": [
      {"measurement": "AUC", "setting": "primary CD138+ MM cells; Pt648, LRMM", "value": 42.835},
      {"measurement": "AUC", "setting": "primary CD138+ MM cells; Pt653, LRMM", "value": 41.560},
      {"measurement": "AUC", "setting": "primary CD138+ MM cells; Pt655, LRMM, listed as MA9", "value": 26.03},
      {"measurement": "AUC", "setting": "primary CD138+ MM cells; Pt663, LRMM, listed as MA9", "value": 47.02},
      {"measurement": "AUC", "setting": "primary CD138+ MM cells; Pt665, LRMM, listed as MA9", "value": 70.14},
      {"measurement": "AUC", "setting": "primary CD138+ MM cells; Pt666, LRMM, listed as MA9", "value": 49.23},
      {"measurement": "AUC", "setting": "primary CD138+ MM cells; Pt669, ERMM, listed as MA9", "value": 29.51},
      {"measurement": "AUC", "setting": "primary CD138+ MM cells; Pt672, NDMM, listed as MA9", "value": 49.16},
      {"measurement": "AUC", "setting": "primary CD138+ MM cells; Pt677, NDMM", "value": "43.301 and 45.593"},
      {"measurement": "AUC", "setting": "primary CD138+ MM cells; Pt680, ERMM", "value": 42.605},
      {"measurement": "AUC", "setting": "primary CD138+ MM cells; Pt680, ERMM, listed as MA9", "value": 35.24},
      {"measurement": "AUC", "setting": "primary CD138+ MM cells; Pt685, ERMM, listed as MA9", "value": 100},
      {"measurement": "AUC", "setting": "primary CD138+ MM cells; Pt689, NDMM", "value": 97.182},
      {"measurement": "AUC", "setting": "primary CD138+ MM cells; Pt691, LRMM, listed as MA9", "value": 68.66},
      {"measurement": "AUC", "setting": "primary CD138+ MM cells; Pt693, SMOL, listed as MA9", "value": 70.97},
      {"measurement": "AUC", "setting": "primary CD138+ MM cells; Pt694, NDMM, listed as MA9", "value": 47.51},
      {"measurement": "AUC", "setting": "primary CD138+ MM cells; Pt695, LRMM, listed as MA9", "value": 70.64},
      {"measurement": "AUC", "setting": "primary CD138+ MM cells; Pt697, NDMM, listed as MA9", "value": 65.92},
      {"measurement": "AUC", "setting": "primary CD138+ MM cells; Pt700, NDMM", "value": 71.574},
      {"measurement": "AUC", "setting": "primary CD138+ MM cells; Pt700, NDMM, listed as MA9", "value": 71.39},
      {"measurement": "AUC", "setting": "primary CD138+ MM cells; Pt707, LRMM, listed as MA9", "value": 73.56},
      {"measurement": "AUC", "setting": "primary CD138+ MM cells; Pt718, SMOL, listed as MA9", "value": 76.17},
      {"measurement": "AUC", "setting": "primary CD138+ MM cells; Pt737, MGUS", "value": 42.854},
      {"measurement": "AUC", "setting": "primary CD138+ MM cells; Pt738, NDMM, listed as MA9", "value": 65.97},
      {"measurement": "AUC", "setting": "primary CD138+ MM cells; Pt740, SMOL", "value": 62.223},
      {"measurement": "AUC", "setting": "primary CD138+ MM cells; Pt745, NDMM", "value": 55.970},
      {"measurement": "AUC", "setting": "primary CD138+ MM cells; Pt825, NDMM", "value": 100},
      {"measurement": "AUC", "setting": "primary CD138+ MM cells; Pt852, NDMM", "value": 41.956},
      {"measurement": "AUC", "setting": "primary CD138+ MM cells; Pt853, ERMM", "value": "49.879 and 54.514"},
      {"measurement": "AUC", "setting": "primary CD138+ MM cells; Pt856, NDMM, listed as MA9", "value": 72.33},
      {"measurement": "AUC", "setting": "primary CD138+ MM cells; Pt865, LRMM, listed as MA9", "value": 59.28},
      {"measurement": "AUC", "setting": "primary CD138+ MM cells; Pt866, NDMM, listed as MA9", "value": 37.56},
      {"measurement": "AUC", "setting": "primary CD138+ MM cells; Pt875, NDMM, listed as MA9", "value": 21.1},
      {"measurement": "AUC", "setting": "primary CD138+ MM cells; Pt885, NDMM", "value": 28.777},
      {"measurement": "AUC", "setting": "primary CD138+ MM cells; Pt885, NDMM, listed as MA9", "value": 27.78},
      {"measurement": "AUC", "setting": "primary CD138+ MM cells; Pt888, LRMM, listed as MA9", "value": 59.98},
      {"measurement": "AUC", "setting": "primary CD138+ MM cells; Pt893, LRMM", "value": 96.916},
      {"measurement": "AUC", "setting": "primary CD138+ MM cells; Pt899, SMOL", "value": 28.290},
      {"measurement": "AUC", "setting": "primary CD138+ MM cells; Pt906, NDMM, listed as MA9", "value": 43.69},
      {"measurement": "AUC", "setting": "primary CD138+ MM cells; Pt909, LRMM", "value": 46.043},
      {"measurement": "AUC", "setting": "primary CD138+ MM cells; Pt912, PCL", "value": 41.302},
      {"measurement": "AUC", "setting": "primary CD138+ MM cells; Pt917, LRMM", "value": 73.927},
      {"measurement": "AUC", "setting": "primary CD138+ MM cells; Pt920, LRMM", "value": 44.399},
      {"measurement": "AUC", "setting": "primary CD138+ MM cells; Pt923, LRMM, listed as MA9", "value": 28.34},
      {"measurement": "AUC", "setting": "primary CD138+ MM cells; Pt932, LRMM", "value": 45.003},
      {"measurement": "AUC", "setting": "primary CD138+ MM cells; Pt933, LRMM, listed as MA9", "value": 57.89},
      {"measurement": "AUC", "setting": "primary CD138+ MM cells; Pt935, NDMM, listed as MA9", "value": 25.47},
      {"measurement": "AUC", "setting": "primary CD138+ MM cells; Pt936, LRMM", "value": 83.700},
      {"measurement": "AUC", "setting": "primary CD138+ MM cells; Pt937, NDMM", "value": "48.139 and 40.693"},
      {"measurement": "AUC", "setting": "primary CD138+ MM cells; Pt940, LRMM", "value": 72.923},
      {"measurement": "AUC", "setting": "primary CD138+ MM cells; Pt945, LRMM", "value": 39.091},
      {"measurement": "AUC", "setting": "primary CD138+ MM cells; Pt948, LRMM, listed as MA9", "value": 24.69},
      {"measurement": "AUC", "setting": "primary CD138+ MM cells; Pt951, ERMM, listed as MA9", "value": 62.38},
      {"measurement": "AUC", "setting": "primary CD138+ MM cells; Pt956, NDMM", "value": "67.208 and 74.021"},
      {"measurement": "AUC", "setting": "primary CD138+ MM cells; Pt957, LRMM", "value": 80.043},
      {"measurement": "AUC", "setting": "primary CD138+ MM cells; Pt961, NDMM", "value": "66.118 and 49.072"},
      {"measurement": "MM-induced osteolysis (X-ray, histology)", "setting": "U266-Luc MM cells", "value": "significantly protected against MM-induced osteolysis"},
      {"measurement": "toxicity (weight loss, lethargy, ruffled hair)", "setting": "U266-Luc MM cells", "value": "did not show any sign of toxicity"},
      {"measurement": "tumor growth (bioluminescence) vs control", "setting": "U266-Luc MM cells", "value": "significantly impaired tumor growth"},
      {"measurement": "toxicity (weight loss, lethargy, ruffled hair)", "setting": "U266-Luc MM cells; listed as MA9", "value": "no overt toxicities"},
      {"measurement": "toxicity to normal primary human MSCs", "setting": "[1]", "value": "not toxic"},
      {"measurement": "IC50", "setting": "BRD4-1", "value": 3.8, "unit": "nM"}
    ]}
  ]
}
